Assay results reported in US11857634B2, “Cationic amphiphilic polymers for codelivery of hydrophobic agents and nucleic acids” (University of Pittsburgh—Of the Commonwealth System of …, priority 2018, dated 2024).
≈ marks a conversion by molar mass, not a printed value. Entries after “also recorded” stand apart in the source; their conditions may differ.

Key:
[1] = Cellular uptake of DOX by confocal laser scanning microscopy (POEG-st-Pmor); format: cell-based; settings: 2 h of incubation
Source text: The cellular uptake of DOX-loaded POEG-st-Pmor micelles was investigated by confocal laser scanning microscopy with free DOX as a control. […] This may, for example, be a result of different cellular uptake routes of free DOX and DOX micelles.

4T1.2 cells [2] = assay: In vitro cytotoxicity, MTT assay (POEG-PCre formulations); format: cell-based, murine; settings: 48 h; DOX 7.8-1,000 ng/mL, tRNA-mir 0.78-100 nM, carrier 78-10000 ng/mL
Description: The in vitro cytotoxicity of DOX+tRNA-mir-34a co-loaded POEG-PCre micelles was evaluated by MTT assay. Tumor cells were treated with various formulations for 48 h, with the doses of DOX, tRNA-mir, and POEG-PCre carrier ranging from 7.8 to 1,000 ng/mL, 0.78 nM to 100 nM, and 78 ng/mL to 10000 ng/mL, respectively. […] A similar trend was also observed in MDA-MB-231 breast cancer cells (FIG. 14B).

[3] = test system: 4T1.2 breast cancer lung metastasis; assay: Mouse model of breast cancer lung metastasis (4T1.2), POEG-st-Pmor formulations; format: in vivo, mice; settings: i.v. every three days for three times; DOX 5 mg/kg, plasmid 50 μg per mouse
Description: Mouse model of breast cancer lung metastasis. Female Balb/c mice were injected with 2×10^5 4 T1.2 cells through the tail vein. Five days after tumor cell injection, mice were randomly divided into 6 groups. POEG-st-Pmor was chosen as a representative carrier system for codelivery of IL-36γ plasmid and DOX. […] The PBS treatment group was used as control. DOX dosage was 5 mg/kg and plasmid dosage was 50 μg per mouse. Lung tissues were harvested and weighted 11 days after the first injection. Pulmonary metastases were enumerated by intra-tracheal injection of India ink solution. India ink-injected lungs were washed in Feket's solution (300 ml 70% EtOH, 30 ml 37% formaldehyde and 5 ml glacial acetic acid) and white tumor nodules against a dark blue lung background were counted.
Histopathological analysis. The lung tissues were harvested and fixed in 10% formalin after the above treatments. The fixed samples were then embedded in paraffin and the tissue sections were stained with hematoxylin/eosin and analyzed for the presence of metastases under microscope. The total number of metastases per lung section was counted in different treatment groups.

[4] = test system: 4T1.2 breast cancer cells; assay: In vitro cytotoxicity, MTT assay (POEG-st-Pmor formulations); settings: 4T1.2 cells, 72 h
Description: Briefly, 4T1.2 cells (2,000 cells/well) were seeded in 96-well plates for overnight and were treated with various concentrations of DOX formulations for 72 h. MTT solution was added to each well and MTT formazan was solubilized by DMSO after 2 h of incubation. The absorbance in each well was measured by a microplate reader at a wavelength of 570 nm. Cell viability was calculated as [(ODtreat−ODblank)/(ODcontrol−ODblank)×100%]. The cytotoxicity of POEG-st-Pmor micelles alone was similarly tested in 4T1.2 cells as described above.

[5] = DOX release from POEG-PCre micelles by dialysis against DPBS; format: physicochemical; settings: first 4 h, DPBS pH 7.4, 37 °C
Description: The release kinetics of DOX from DOX-loaded POEG-PCre micelles was investigated by dialysis against DPBS of pH 7.4 at 37° C. […] To the contrary, only 16% of DOX was released from DOX/POEG-PCre micelles in first 4 h, and less than 40% of DOX was released for an extended period of 96 h.

[6] = Intracellular uptake and distribution of DOX at pH 6.8 and 7.4, CLSM; format: cell-based; settings: 4 h incubation
Source text: Intracellular uptake and distribution of DOX-loaded micelles and IL-12/DOX co-loaded PMet-P(cdmPEG2K) micelleplexes was investigated by CLSM.

4T1.2 cells [7] = assay: Intracellular co-delivery of DOX and MFP488-labeled tRNA-mir-34a, confocal microscopy; format: cell-based, murine; settings: 4 h
Description: To monitor intracellular co-delivery of DOX and tRNA-mir-34a, tRNA-mir-34a was labeled with MFP488 fluorescent dye to visualize the cell uptake of tRNA-mir-34a along with red fluorescence of DOX. 4T1.2 cells were incubated for 4 h with micelle complexes carrying DOX and/or MFP488-labeled tRNA-mir-34a and then observed under a confocal microscope. Naked tRNA-mir-34a without any transfection agent was used as a negative control.

4T1.2 cancer cells = assay: Cell migration, wound closure assay; format: cell-based, murine; settings: 4T1.2, 24 h
Source text: Besides cancer cell viability, cell migration represents a critical process for tumor progression and metastasis. MiR-34a has been reported to be functional as an anti-metastatic miRNA by directly targeting CD44 and NOTCH-1. Therefore, the effect of tRNA-mir-34a and DOX co-loaded nanocomplexes on the cell migration was investigated using the wound closure assay.

breast cancer cells = assay: Apoptosis assay, Annexin V/propidium iodide flow cytometry; format: cell-based
Description: The enhanced cytotoxicity of DOX+tRNA-mir-34a-co-loaded nanocomplexes was assessed via apoptosis assay. Cell apoptosis was evaluated quantitatively by Annexin V/propidium iodide flow cytometry.

[8] = test system: immune cells in tumor-bearing lungs; assay: Immune cells in tumor-bearing lungs (POEG-PCre formulations); set-up: species or system mice; settings: mouse, in vivo
Source text: Treatment with tRNA-mir-34a alone or tRNA-mir-34a/DOX combination reduced the numbers of PD1+ CD8 cells (FIG. 16D) and T-regulatory cells (Tregs) (FIG. 16E).

[9] = Toxicity: body weight, blood chemistry, H&E staining of major organs; set-up: species or system mice; settings: mouse, in vivo
Description: In addition, blood chemistry tests were performed to evaluate the effect of our formulations on liver and kidney functions. […] Moreover, the H & E staining of major organs was carried out to further evaluate the potential toxicity of different treatments.

[10] = In vitro DOX release from POEG-st-Pmor micelles by dialysis; format: physicochemical; settings: first 4 hours, PBS, 37 °C
Description: In vitro drug release study for POEG-st-Pmor micelles. The in vitro DOX release kinetics for the POEG-st-Pmor micelles was determined by a dialysis method. Briefly, 0.5 ml of DOX-loaded micelles and micelles co-loaded with DOX and IL-36γ plasmid at a DOX concentration of 0.5 mg/mL were placed into a dialysis bag (MW cutoff 3,500), respectively. The dialysis bag was incubated in 100 mL PBS with gentle shaking at 37° C. Two ml of PBS solution outside of the dialysis bag was collected at different time points and equal amount of fresh PBS was added back. The concentrations of released DOX were determined by HPLC.

Dicer = assay: Induction of Dicer after treatment; format: cell-based; settings: dose dependent
4T1.2 tumor metastasis = assay: Breast cancer lung metastasis model (4T1.2), POEG-PCre formulations; format: in vivo, mice; settings: i.v. every 3 d for 3 times, analysed 5 days after last treatment
Description: The in vivo anti-tumor efficacy of DOX+tRNA-mir-34a co-loaded nanocomplexes was evaluated in a breast cancer lung metastasis model, generated by tail-vein injection of 4T1.2 tumor cells into female Balb/c mice. Five days after tumor inoculation, various treatments were applied to each group of mice (n=5) via i.v. administration every 3 d for 3 times. The tumor burdens in the lungs were analyzed 5 days after the last treatment. […] No significant decrease of body weight was observed, indicating the safety of the formulation (FIG. 15C).
To further confirm the anticancer efficacy, H&E staining and immunohistochemical analysis of Ki67 were performed in tumor-bearing lungs.

[11] = test system: immune cells in lung tissues; assay: Tumor-infiltrating lymphocytes and MDSCs in tumor-bearing lungs, flow cytometry (POEG-st-Pmor); format: in vivo, mice; settings: compared to untreated control group
Description: Analysis of tumor-infiltrating lymphocytes and myeloid-derived suppressor cells. Lung tissues were collected in serum free RPMI medium and cut mechanically with scissors. Liberase TL (0.3 mg/ml) and DNase I (0.3 mg/ml) were used to digest the lung tissues and tumor nodules. Tissues were further grinded and filtered through a […] cell strainer. TILs and MDSC cells were further purified and stained with fluorescence-labeled antibody for flow cytometry analysis using a FACS flow cytometer.

## COc1cccc2c1C(=O)c1c(O)c3c(c(O)c1C2=O)C[C@@](O)(C(=O)CO)C[C@@H]3O[C@H]1C[C@H](N)[C@H](O)[C@H](C)O1 [free DOX, Doxorubicin]
[1]
  Intracellular location of DOX signals: largely found in the nucleus
4T1.2 cells [2]
  Cell growth inhibition / cytotoxicity: inhibited the proliferation of tumor cells in a dose dependent manner
[3]
  Antitumor activity / inhibition of lung metastasis: significant inhibition of lung metastasis; also recorded: significant activity
[4]; DOX 4 to 1000 ng/mL
  Cytotoxicity: dose-dependent cell killing profile
[4]; MTT, as DOX
  IC50: 0.13 µg/mL (≈ 0.239 µM)
[5]
  DOX released: more than 80%
[6]
  Cellular uptake compared with DOX-loaded micelles: slightly stronger fluorescence signal
  Intracellular DOX fluorescence at pH 6.8 versus pH 7.4: not significantly affected by pH
4T1.2 cells [7]
  Intracellular location of fluorescence signals: largely found in the nucleus
4T1.2 cancer cells
  Inhibition of cell migration: ~40%
Breast cancer cells
  Cell apoptosis: ~31%
[8]
  Numbers of CD4 cells in tumor-bearing lungs: significant increase
  Numbers of CD8 cells in tumor-bearing lungs: significant increase
  Numbers of MDSC: trend of decreases
  Numbers of functional CD8 (IFN-γ+ CD8) cells: trend of increase
[9]
  Pathological changes, H&E staining of major organs: signs of myocytolysis and myofibrillolysis with fibrils dearrangement; also recorded: hepatocellular vacuolation
[10]
  DOX released: 80%
Dicer
  Dicer expression: induction of Dicer
4T1.2 tumor metastasis
  Inhibition of lung metastasis / tumor nodules in lungs: Dramatic reduction in the number of tumor nodules
[11]
  CD4+ T cells in lung tissues: significant increase
  CD8+ T cells in lung tissues: significant increase
